Source: patent US5607937A, “Piperazides of substituted phenylalanine derivatives as thrombin inhibitors” (priority 1993, dated 1997)
Where two headings read alike, the source gives them in different places.

Key:
[1] = plasma concentration in rats after intravenous administration; format: in vivo; conditions: rat; for concentration at 5 min / concentration at 0.25 h / concentration at 0.5 h / concentration at 1 h: plasma, iv; for concentration at 5 min / concentration at 0.25 h / concentration at 0.5 h / concentration at 1 h / Concentration in plasma: i.v. 1 mg/kg; for concentration at 0.25 h: 15 min; for concentration at 0.5 h: 30 min; for concentration at 1 h: 60 min
Description: (§2) A physiological NaCl solution of the substance to be tested was submitted to high pressure liquid chromatography (HPLC) in order to determine its characteristic substance-specific retention time with the chosen test conditions.
(§3) The substance to be tested was diluted in vitro in rat plasma. This solution was also submitted to HPLC to see whether the characteristic peak of the substance once again appeared at the substance-specific retention time.
(§4) Blood samples were taken at time intervals of 15 minutes, from which plasma samples were prepared by centrifugation; those samples were also submitted to HPLC to see whether the characteristic peak of the substance appeared again at the substance-specific retention time.
(§5) After administration, blood samples were taken from the test animals at time intervals from 2 to maximally 360 minutes and the blood level of the compounds to be tested was determined by HPLC.

[2] = plasma concentration in rats after oral administration; format: in vivo; conditions: rat
Description: as §2, §3, §4, §5

[3] = plasma concentration in rats after rectal administration; format: in vivo; conditions: rat; for concentration at 0.5 h / concentration at 1 h / concentration at 2 h / concentration at 3 h / concentration at 4 h / concentration at 5 h / concentration at 6 h: plasma; for concentration at 0.5 h: 30 min; for concentration at 1 h: 60 min; for concentration at 2 h: 120 min; for concentration at 3 h: 180 min; for concentration at 4 h: 240 min; for concentration at 5 h: 300 min; for concentration at 6 h: 360 min
thrombin = thrombin (Bos taurus, UniProt P00735); assay: biochemical
[4] = system: coagulation in human plasma; assay: thrombin time (TT) in human plasma
tPA = tPA (Homo sapiens, UniProt P00750); assay: inhibition of tPA, dissociation constant Ki
tPA, sequence (P00750 36-562): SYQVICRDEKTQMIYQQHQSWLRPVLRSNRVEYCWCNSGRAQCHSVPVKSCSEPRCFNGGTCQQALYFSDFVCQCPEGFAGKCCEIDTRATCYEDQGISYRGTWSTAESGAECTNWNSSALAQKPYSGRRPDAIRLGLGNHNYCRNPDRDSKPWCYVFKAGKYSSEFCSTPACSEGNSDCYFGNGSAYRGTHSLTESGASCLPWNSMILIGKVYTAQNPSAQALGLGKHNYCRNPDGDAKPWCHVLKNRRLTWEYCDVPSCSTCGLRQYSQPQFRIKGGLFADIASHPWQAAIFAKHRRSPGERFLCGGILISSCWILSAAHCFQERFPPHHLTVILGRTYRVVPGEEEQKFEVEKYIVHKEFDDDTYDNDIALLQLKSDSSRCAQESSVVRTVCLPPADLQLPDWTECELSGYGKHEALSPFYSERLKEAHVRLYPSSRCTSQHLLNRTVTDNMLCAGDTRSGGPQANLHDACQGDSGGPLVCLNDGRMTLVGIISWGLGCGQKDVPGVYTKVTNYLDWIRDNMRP

[5] = system: coagulation in human plasma; assay: prothrombin time (PT, Quick value) in human plasma
factor XIIa = target: T1, factor XIIa (Homo sapiens, UniProt P00748); assay: inhibition of factor XIIa, dissociation constant Ki
T1 sequence (P00748 373-615 limits assumed): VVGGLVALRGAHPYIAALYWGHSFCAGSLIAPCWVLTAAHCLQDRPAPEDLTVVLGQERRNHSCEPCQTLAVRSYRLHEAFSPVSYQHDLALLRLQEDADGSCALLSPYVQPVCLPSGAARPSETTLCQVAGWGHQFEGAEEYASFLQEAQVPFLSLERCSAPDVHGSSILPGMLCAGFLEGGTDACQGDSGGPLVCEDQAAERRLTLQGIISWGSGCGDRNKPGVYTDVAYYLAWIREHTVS

plasma kallikrein = plasma kallikrein (Homo sapiens, UniProt P03952); assay: inhibition of plasma kallikrein, dissociation constant Ki
plasma kallikrein, sequence (P03952 391-638 limits assumed, species assumed): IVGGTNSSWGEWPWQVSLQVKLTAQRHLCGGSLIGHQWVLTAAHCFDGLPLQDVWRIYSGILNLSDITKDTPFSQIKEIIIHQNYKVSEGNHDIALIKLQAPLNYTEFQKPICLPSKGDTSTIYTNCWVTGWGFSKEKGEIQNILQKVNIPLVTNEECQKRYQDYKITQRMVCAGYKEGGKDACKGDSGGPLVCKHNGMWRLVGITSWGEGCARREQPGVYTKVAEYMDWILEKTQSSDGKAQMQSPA
plasma kallikrein, sequence (P03952 20-390 partner limits assumed, species assumed): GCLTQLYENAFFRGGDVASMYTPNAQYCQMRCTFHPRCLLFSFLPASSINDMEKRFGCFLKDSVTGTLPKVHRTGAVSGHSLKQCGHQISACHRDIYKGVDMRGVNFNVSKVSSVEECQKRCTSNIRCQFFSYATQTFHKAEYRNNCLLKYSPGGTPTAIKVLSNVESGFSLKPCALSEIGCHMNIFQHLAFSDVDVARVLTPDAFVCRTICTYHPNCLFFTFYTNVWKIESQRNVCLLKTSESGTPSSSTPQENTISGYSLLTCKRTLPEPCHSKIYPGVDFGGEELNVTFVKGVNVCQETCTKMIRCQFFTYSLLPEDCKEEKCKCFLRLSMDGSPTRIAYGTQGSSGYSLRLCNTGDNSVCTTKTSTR

glandular kallikrein = glandular kallikrein (Sus scrofa, UniProt P00752); assay: inhibition of glandular kallikrein, dissociation constant Ki
glandular kallikrein, sequence (P00752 8-246): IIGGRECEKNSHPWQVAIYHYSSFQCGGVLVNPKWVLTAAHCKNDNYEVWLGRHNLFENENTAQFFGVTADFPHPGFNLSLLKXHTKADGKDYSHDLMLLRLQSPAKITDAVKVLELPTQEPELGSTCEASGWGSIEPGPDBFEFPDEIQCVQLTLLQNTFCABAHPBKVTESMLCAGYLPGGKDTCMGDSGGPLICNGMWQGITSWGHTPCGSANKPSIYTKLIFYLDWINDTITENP

[6] = system: coagulation in human plasma; assay: activated partial thromboplastin time (aPTT) in human plasma
in vivo = conditions: rat
[7] = system: coagulation in rat plasma; assay: thrombin time in rat plasma after rectal application; format: in vivo; conditions: rectal 5 mg/kg
Description: (§1) After rectal administration of the compounds to be tested, the anticoagulant effect was determined in the plasma of experimental animals.

[8] = system: coagulation in rat plasma; assay: aPTT in rat plasma after rectal application; format: in vivo; conditions: rectal 5 mg/kg
Description: as §1

[9] = concentration in rat plasma in the anticoagulant study after rectal application; format: in vivo; conditions: rectal 5 mg/kg
trypsin = target: T2, trypsin (Bos taurus, UniProt P00760); assay: inhibition of trypsin, dissociation constant Ki; format: biochemical; set-up: thrombin and the related enzymes trypsin, plasmin, factor Xa, factor XIIa; conditions: Table 1; read-out: Ki, Trypsin
T2 sequence (P00760 24-246): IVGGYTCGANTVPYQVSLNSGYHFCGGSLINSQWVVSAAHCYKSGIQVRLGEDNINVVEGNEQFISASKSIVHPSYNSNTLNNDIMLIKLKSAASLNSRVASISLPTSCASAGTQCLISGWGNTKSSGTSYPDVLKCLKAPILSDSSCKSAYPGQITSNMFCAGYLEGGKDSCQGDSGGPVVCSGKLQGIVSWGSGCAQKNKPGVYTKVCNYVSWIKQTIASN
Description: The biological activity of the compounds of the present invention was determined in vitro as well as in vivo.

CCOC(=O)N1CCN(C(=O)C(Cc2cccc(C(=N)N)c2)NS(=O)(=O)c2ccc3ccccc3c2)CC1 (racemic) [X, N-α-(2-naphthylsulfonyl)-(D,L)-3-amidinophenylalanine-4-ethoxycarbonyl piperazide, reference compound]
concentration at 5 min [1]: 812 ng/mL | concentration at 0.25 h [1]: 169 ng/mL | concentration at 0.5 h [1]: 40 ng/mL | concentration at 1 h [1]: 8 ng/mL | Concentration in plasma ([1]; 120 min): 0 ng/mL | Concentration in plasma ([1]; 180 min): 0 ng/mL | concentration at 0.5 h ([2]; plasma, oral 50 mg/kg, 30 min): 33 ng/mL | concentration at 1 h ([2]; plasma, oral 50 mg/kg, 60 min): 10 ng/mL | Concentration in plasma ([2]; oral 50 mg/kg, 120 min): 0 ng/mL | Concentration in plasma ([2]; oral 50 mg/kg, 180 min): 0 ng/mL | Concentration in plasma ([2]; oral 50 mg/kg, 240 min): 0 ng/mL | Concentration in plasma ([2]; oral 50 mg/kg, 300 min): 0 ng/mL | concentration at 0.5 h ([3]; rectal 100 mg/kg): 3260 ng/mL | concentration at 1 h ([3]; rectal 100 mg/kg): 2370 ng/mL | concentration at 2 h ([3]; rectal 100 mg/kg): 1800 ng/mL | concentration at 3 h ([3]; rectal 100 mg/kg): 898 ng/mL | concentration at 4 h ([3]; rectal 100 mg/kg): 626 ng/mL | concentration at 5 h ([3]; rectal 100 mg/kg): 592 ng/mL | concentration at 6 h ([3]; rectal 100 mg/kg): 448 ng/mL | Ki (thrombin): 0.67 µM | Concentr. to double the Thrombin time [4]: 4.1 µmol/L | Ki (tPA): 370 µM | Concentr. to double the Prothrombin time [5]: 45 µmol/L | Ki (factor XIIa): 210 µM | Ki (plasma kallikrein): 30 µM | Ki (glandular kallikrein): > 1000 µM | Concentr. to double the aPTT [6]: 20 µmol/L

Cl.Cl.N=C(N)c1cccc(C[C@H](NS(=O)(=O)c2ccc3ccccc3c2)C(=O)N2CCN(CCO)CC2)c1 [Compound 3, Nα-(2-naphthylsulfonyl)-3-amidino-(L)-phenylalanine-4-(2-hydroxyethyl) -piperazide dihydrochloride]
concentration at 5 min [1]: 2210 ng/mL | concentration at 0.25 h [1]: 145 ng/mL | concentration at 0.5 h [1]: 313 ng/mL | concentration at 1 h [1]: 112 ng/mL | elimination in words ([1]; i.v.): eliminated at comparable rate | Concentration in plasma ([1]; 120 min): 0 ng/mL | Concentration in plasma ([1]; 180 min): 0 ng/mL | resorption in words ([2]; oral): only slightly resorbed | concentration at 0.5 h ([3]; rectal 20 mg/kg): 7260 ng/mL | concentration at 1 h ([3]; rectal 20 mg/kg): 3800 ng/mL | concentration at 2 h ([3]; rectal 20 mg/kg): 1740 ng/mL | concentration at 3 h ([3]; rectal 20 mg/kg): 814 ng/mL | concentration at 4 h ([3]; rectal 20 mg/kg): 215 ng/mL | concentration at 5 h ([3]; rectal 20 mg/kg): 61 ng/mL | concentration at 6 h ([3]; rectal 20 mg/kg): 34 ng/mL | detectable in plasma after rectal administration ([3]; rectal): ≥ 6 h | concentration at 0.5 h (in vivo; plasma, intraduodenal 100 mg/kg, 30 min): 3820 ng/mL | Concentration in plasma (in vivo; in vivo, other, 100 mg/kg, 120 min): 361 ng/mL | Concentration in plasma (in vivo; intraduodenal 100 mg/kg, 30 min, dihydrochloride, 100 mg/kg): 2262 ng/mL | Concentration in plasma (in vivo; intraduodenal 100 mg/kg, 60 min, dihydrochloride, 100 mg/kg): 2172 ng/mL | Concentration in plasma (in vivo; intraduodenal 100 mg/kg, 60 min, listed as 3*, dihydrochloride, 100 mg/kg): 795 ng/mL | Concentration in plasma (in vivo; intraduodenal 100 mg/kg, 120 min): 1457 ng/mL | Concentration in plasma (in vivo; intraduodenal 100 mg/kg, 180 min, dihydrochloride, 100 mg/kg): 945 ng/mL | Concentration in plasma (in vivo; intraduodenal 100 mg/kg, 180 min, listed as 3*, dihydrochloride, 100 mg/kg): 228 ng/mL | Concentration in plasma (in vivo; intraduodenal 100 mg/kg, 240 min, dihydrochloride, 100 mg/kg): 1277 ng/mL | Concentration in plasma (in vivo; intraduodenal 100 mg/kg, 240 min, listed as 3*, dihydrochloride, 100 mg/kg): 144 ng/mL | Concentration in plasma (in vivo; intraduodenal 100 mg/kg, 300 min, dihydrochloride, 100 mg/kg): 1400 ng/mL | Concentration in plasma (in vivo; intraduodenal 100 mg/kg, 300 min, listed as 3*, dihydrochloride, 100 mg/kg): 276 ng/mL | Clotting time, Thrombin time ([7]; 0 min): 45 s | Clotting time, Thrombin time ([7]; 30 min): 300 s | Clotting time, Thrombin time ([7]; 60 min): 298 s | Clotting time, Thrombin time ([7]; 120 min): 165 s | Clotting time, Thrombin time ([7]; 180 min): 114 s | Clotting time, aPTT ([8]; 0 min): 23.5 s | Clotting time, aPTT ([8]; 30 min): 39.8 s | Clotting time, aPTT ([8]; 60 min): 32.8 s | Clotting time, aPTT ([8]; 120 min): 27.4 s | Clotting time, aPTT ([8]; 180 min): 26.0 s | concentration at 0.5 h ([9]; plasma, 30 min): 897 ng/mL | concentration at 1 h ([9]; plasma, 60 min): 462 ng/mL | concentration at 2 h ([9]; plasma, 120 min): 355 ng/mL | concentration at 3 h ([9]; plasma, 180 min): 49 ng/mL | Concentration in plasma ([9]; 0 min): 0 ng/mL | Ki (thrombin): 0.036 µM | Concentr. to double the Thrombin time [4]: 0.14 µmol/L | Ki (tPA): 190 µM | Concentr. to double the Prothrombin time [5]: 1.3 µmol/L | Ki (factor XIIa; Ki, Factor XIIa, Table 1): 320 µM | Ki (plasma kallikrein): 25 µM | Ki (glandular kallikrein): > 1000 µM | Concentr. to double the aPTT [6]: 0.65 µmol/L | Ki (trypsin): 0.6 µM
